Assay results as given in the CheMixHub viscosity set.
Where “and” joins values, the source holds several entries; their conditions need not be identical. Equal entries are not always repeated.

Columns and labels:
[1] = xn = mol fraction of the nth substance listed

C1CCC2=[NH+]CCCN2CC1.c1c[n-]cn1
Conditions	viscosity [mPa·s]
298.15 K, 100 kPa	34.34

C1CCCCCC1
Conditions	viscosity [mPa·s]
303.15 K, 101 kPa	1.239

CC(=O)O
Conditions	viscosity
293.15 K, 101.32 kPa	1.226 mPa·s
293.15 K, 101.33 kPa	1.226 mPa·s and 1.222 mPa·s
298.15 K, 101.3 kPa	1.155 mPa·s and 1.27 mPa·s
303.15 K, 100 kPa	0.982 mPa·s
303.15 K, 101.33 kPa	1.346 mPa·s and 0.98 mPa·s
308.15 K, 101.3 kPa	1.08 mPa·s
308.15 K, 101.32 kPa	0.9795 mPa·s
313.15 K, 101.3 kPa	0.931 mPa·s
318.15 K, 101.32 kPa	0.8536 mPa·s
323.15 K, 101.3 kPa	0.823 mPa·s and 0.883 mPa·s

CC1CCCC(C)C1=O (stereo not drawn)
100 kPa
Conditions	viscosity [mPa·s]
303.15 K	3.709
308.15 K	3.237
313.15 K	2.765

CCC(=O)N(CC)CC
Conditions	viscosity [mPa·s]
298.16 K, 101 kPa	1.241

CCCCCCCC[n+]1ccccc1.F[B-](F)(F)F
101.3 kPa
Conditions	viscosity [mPa·s]
293.15 K	319.7
298.15 K	233.5
303.15 K	171.9
308.15 K	134.8
313.15 K	105.7
318.15 K	81.56
323.15 K	64.89

CCCCCC[n+]1ccn(C)c1.[I-]
101 kPa
Conditions	viscosity [mPa·s]
293.15 K	2633
298.15 K	1742
303.15 K	1175
308.15 K	801.8
313.15 K	563.5
318.15 K	404.7
323.15 K	278.8

CCC[N+](C)(C)C.O=S(=O)([N-]S(=O)(=O)C(F)(F)F)C(F)(F)F
101.3 kPa
Conditions	viscosity [mPa·s]
293.15 K	102
298.15 K	79.4
303.15 K	63.2
308.15 K	51.1
313.15 K	42
318.15 K	35
323.15 K	29.5

CCCn1cc[n+](C)c1C.F[B-](F)(F)F
101 kPa
Conditions	viscosity [mPa·s]
298.15 K	377.3
303.15 K	271.9
308.15 K	202
313.15 K	152.2
318.15 K	117.4
323.15 K	92.29

CCNc1ccccc1
Conditions	viscosity
293.15 K, 101 kPa	2.282 mPa·s
298 K, 101 kPa	1.947 mPa·s
298 K, 101.3 kPa	1.952 mPa·s
298.15 K, 101 kPa	1.971 mPa·s and 1.75 mPa·s and 1.959 mPa·s
303 K, 101 kPa	1.741 mPa·s
303 K, 101.3 kPa	1.71 mPa·s
303.15 K, 100 kPa	1.742 mPa·s
308 K, 101 kPa	1.549 mPa·s
308 K, 101.3 kPa	1.559 mPa·s
308.15 K, 101.33 kPa	1.5 mPa·s
313 K, 101 kPa	1.392 mPa·s
313 K, 101.3 kPa	1.389 mPa·s
313.15 K, 101 kPa	1.405 mPa·s and 1.391 mPa·s and 1.34 mPa·s
318 K, 101 kPa	1.263 mPa·s
318 K, 101.3 kPa	1.251 mPa·s
318.15 K, 101 kPa	1.264 mPa·s
323.15 K, 101 kPa	1.146 mPa·s and 1.07 mPa·s and 1.124 mPa·s

CCOC=O
viscosity
Conditions	293.15 K	298.15 K	303.15 K	308.15 K	313.15 K	318.15 K	323.15 K
100 kPa	–	0.38 mPa·s and 0.38 mPa·s	0.36 mPa·s and 0.36 mPa·s	–	0.328 mPa·s	0.31 mPa·s and 0.31 mPa·s	0.29 mPa·s and 0.29 mPa·s
101 kPa	0.418 mPa·s	0.3972 mPa·s	0.378 mPa·s	0.361 mPa·s	–	–	0.308 mPa·s
101.33 kPa	–	0.379 mPa·s	–	–	–	–	–

C[Si]1(C)O[Si](C)(C)O[Si](C)(C)O[Si](C)(C)O1
viscosity [mPa·s]
Conditions	298.15 K	308.15 K	318.15 K
101 kPa	2.19	1.806	1.514
103 kPa	2.068	1.71	1.435

C[n+]1ccn(CCO)c1.O=S(=O)([O-])C(F)(F)C(F)(F)C(F)(F)C(F)(F)F
101 kPa
Conditions	viscosity [mPa·s]
298.15 K	831.6
308.15 K	411.4
318.15 K	224

ClCCCl
Conditions	viscosity
293.15 K, 101 kPa	0.8397 mPa·s
298 K, 101.33 kPa	0.77 mPa·s
303 K, 101.33 kPa	0.722 mPa·s
303.15 K, 101.3 kPa	0.73 mPa·s
303.15 K, 101.33 kPa	0.7295 mPa·s and 0.7295 mPa·s
308.15 K, 100 kPa	0.682 mPa·s
308.15 K, 101 kPa	0.6929 mPa·s
313 K, 101.33 kPa	0.639 mPa·s
323 K, 101.33 kPa	0.573 mPa·s
323.15 K, 101 kPa	0.5724 mPa·s

ClCCl
Conditions	viscosity
293.15 K, 101 kPa	0.428 mPa·s
298 K, 101 kPa	0.433 mPa·s
298.15 K, 101.33 kPa	0.38 mPa·s and 0.406 mPa·s and 0.401 mPa·s
303.15 K, 101.3 kPa	0.394 mPa·s
303.15 K, 101.33 kPa	0.369 mPa·s
308.15 K, 101.33 kPa	0.362 mPa·s

O=S(=O)(O)O
101 kPa
Conditions	viscosity [mPa·s]
293.15 K	28.7
313.15 K	16
323.15 K	12.5

CC(=O)O + c1ccccc1
[1]
Conditions	viscosity
293.15 K, 101 kPa, x1 = 0.2158	0.658 mPa·s
293.15 K, 101 kPa, x1 = 0.3643	0.684 mPa·s
293.15 K, 101 kPa, x1 = 0.4322	0.67 mPa·s
293.15 K, 101 kPa, x1 = 0.5213	0.684 mPa·s
293.15 K, 101 kPa, x1 = 0.7321	0.723 mPa·s
293.15 K, 101 kPa, x1 = 0.9233	0.808 mPa·s
298.1 K, 101 kPa, x1 = 0.2	0.598 mPa·s
298.1 K, 101 kPa, x1 = 0.4	0.617 mPa·s
298.1 K, 101 kPa, x1 = 0.5	0.636 mPa·s
298.1 K, 101 kPa, x1 = 0.6	0.672 mPa·s
298.1 K, 101 kPa, x1 = 0.8	0.802 mPa·s
298.15 K, 101 kPa, x1 = 0.2158	0.632 mPa·s
298.15 K, 101 kPa, x1 = 0.3643	0.661 mPa·s
298.15 K, 101 kPa, x1 = 0.4322	0.65 mPa·s
298.15 K, 101 kPa, x1 = 0.5213	0.663 mPa·s
298.15 K, 101 kPa, x1 = 0.7321	0.668 mPa·s
298.15 K, 101 kPa, x1 = 0.9233	0.716 mPa·s
298.15 K, 101.33 kPa, x2 = 0.1	0.9008 mPa·s
298.15 K, 101.33 kPa, x2 = 0.1339	0.893 mPa·s
298.15 K, 101.33 kPa, x2 = 0.25	0.7374 mPa·s and 0.754 mPa·s
298.15 K, 101.33 kPa, x2 = 0.2921	0.734 mPa·s
298.15 K, 101.33 kPa, x2 = 0.4	0.655 mPa·s
298.15 K, 101.33 kPa, x2 = 0.4179	0.666 mPa·s
298.15 K, 101.33 kPa, x2 = 0.5	0.6298 mPa·s and 0.653 mPa·s
298.15 K, 101.33 kPa, x2 = 0.7231	0.597 mPa·s
298.15 K, 101.33 kPa, x2 = 0.75	0.5983 mPa·s
298.15 K, 101.33 kPa, x2 = 0.7711	0.596 mPa·s
298.15 K, 101.33 kPa, x2 = 0.8704	0.591 mPa·s
298.15 K, 101.33 kPa, x2 = 0.9645	0.594 mPa·s
303.15 K, 101 kPa, x1 = 0.2158	0.61 mPa·s
303.15 K, 101 kPa, x1 = 0.3643	0.628 mPa·s
303.15 K, 101 kPa, x1 = 0.4322	0.624 mPa·s
303.15 K, 101 kPa, x1 = 0.5213	0.642 mPa·s
303.15 K, 101 kPa, x1 = 0.7321	0.653 mPa·s
303.15 K, 101 kPa, x1 = 0.9233	0.71 mPa·s
303.15 K, 101 kPa, x2 = 0.1603	0.8519 mPa·s
303.15 K, 101 kPa, x2 = 0.39	0.6887 mPa·s
303.15 K, 101 kPa, x2 = 0.7224	0.5822 mPa·s
313.15 K, 101 kPa, x2 = 0.1603	0.7841 mPa·s
313.15 K, 101 kPa, x2 = 0.39	0.6245 mPa·s
313.15 K, 101 kPa, x2 = 0.7224	0.5111 mPa·s
323.15 K, 101 kPa, x2 = 0.1603	0.7112 mPa·s
323.15 K, 101 kPa, x2 = 0.39	0.5776 mPa·s
323.15 K, 101 kPa, x2 = 0.7224	0.4939 mPa·s
